{"source": "patent US20210393503A1", "about": "“ORGANIC COMPOUNDS” (GIVAUDAN SA, priority 2017, published 2021)", "key": {"[1]": {"tested_on": "Reconstituted Human Oral Epithelium (RHO)", "test": "Re-epithelization after injury by TEER (trans epithelial electrical resistance)", "assay_type": "cell-based", "conditions": "24 h after treatment; RHO injured with glass capillary; vs control not treated after injury; FIG. 1", "method": "Experiments were performed on Reconstituted Human Oral Epithelium (RHO).\n(§1) Immediately after the arrival in the laboratory, the RHO was removed from the agarose nutrient solution under a sterile airflow cabin. The inserts were rapidly placed in a 6-well plate previously filled with 1 ml of the maintenance medium at room temperature. The wells were placed in an incubator at 37° C., 5% CO2 and saturated humidity overnight.\nOn the next day, an injury was performed with a glass capillary.\nThe RHO samples were then treated with a solution containing hyaluronic acid having low (20-50 kDa), intermediate (100-300 kDa) or high (1,000-1,400 kDa) molecular weight. Untreated RHO was used as a control without treatment.\n(§2) The RHO samples for this assessment were prepared according to the procedure of example 1.\n24 h after the treatment with hyaluronic acid, the trans epithelial electric resistance (TEER) was measured as follows:\n0.5 ml of physiological saline solution was directly applied on the tissue placed in a 6-well plate containing 5 ml of saline solution as well. The two electrodes of a Millicell-ERS Voltohmmeter (range 0-20 kΩ) were placed were placed in two compartments on either side of the tissue, such that the electric flux passed through the tissue. The result of the measurement directly appeared on the display. […]"}, "[2]": {"tested_on": "Reconstituted Human Oral Epithelium (RHO) colonized with S. Aureus", "test": "Biofilm formation by TEER on colonized RHO", "assay_type": "cell-based", "method": "as §1, with “medium […]” for “medium”\n(§3) The protocol was performed on duplicate tissues for bacterial burden and on single tissue for further morphological analysis (SEM, H&E).\n(§4) S. aureus MRSA ATCC 33591 was thawed and cultured in nutrient broth at 37° C., under agitation.\n(§5) 30 μL of intermediate molecular weight hyaluronic acid solution (0.2% w/v) or of chlorhexidine (CHL) 0.2% (positive control), respectively, were topically applied to RHO samples, and incubated for 24 h. Then, the product residual volume was removed by a micropipette from the epithelium surface.\nThe RHO samples were then colonized with S. Aureus bacterial suspensions (O.D. 0.1 about 10^6 UFC/tissue), which was applied topically for 4 h. After 4 h, the remaining S. aureus solution was removed and RHO tissue samples were incubated for 16 h at 37° C., 5% CO2. […]\nTEER was measured as described hereafter: 0.5 ml of physiological saline solution was directly applied on the tissue placed in a 6-well plate containing 5 ml of saline solution as well. […]"}, "[3]": {"tested_on": "S. aureus MRSA ATCC 33591", "test": "Biofilm formation by bacterial count on colonized RHO", "assay_type": "cell-based, Staphylococcus aureus", "method": "as §1, with “medium […]” for “medium”\nas §3, §4, §5\n(§6) The RHO samples were then colonized with S. Aureus bacterial suspensions (O.D. 0.1 about 10^6 UFC/tissue), which was applied topically for 4 h. After 4 h, the remaining S. aureus solution was removed and RHO tissue samples were incubated for 16 h at 37° C., 5% CO2.\nThe samples for this assessment were prepared according to the procedure of example 5.\nIn order to perform the bacterial count on apical, basolateral and homogenate compartments, the following procedure was used: • For the basolateral compartment: 1 ml of culture medium from each well was sampled. • For the apical compartment, the samples from the TEER measurement according to example 6 were used: Each sample contained 500 μl of physiological saline solution. These samples were moved to a new 6-well plate that had been previously filled with 2 ml/well of saline solution and put in a sonicator bath for 7 minutes at 40 kHz. After sonication, 500 μl of saline solution were sampled for the apical compartment and the RHO tissues were rinsed twice with 200 μl of saline solution. The total amount of solution (900 μl) was then pooled together to obtain the harvested apical compartment. • For the homogenate compartment: a sterile scalpel blade has been used to harvest tissues from the insert and to place them in an Eppendorf tube containing 500 μL of 0.5% Triton X-100 solution prepared in sterile distilled water for at least 10 minutes.\nBacterial counts of the three compartments were performed on Nutrient Agar plates, plating the appropriate 10-fold dilutions (from the not diluted to 10-7) of each compartment suspension (one 10 μl drop for each dilution). After 1 day of incubation at 37° C., the colonies were numbered visually."}, "[4]": {"tested_on": "S. aureus MRSA ATCC 33591", "test": "Biofilm visualization by scanning electronic microscopy", "assay_type": "cell-based, Staphylococcus aureus", "conditions": "100-300 kDa, 0.2% w/v, colonization with S. Aureus, after 4 h", "method": "as §1, with “medium […]” for “medium”\nas §3, §4, §5, §6\nThe samples for this experiment were prepared according to the procedure of example 5.\nAfter treatment, samples for SEM were immediately fixed by immersion in 2.5% gluteraldehyde in PBS. […]"}, "[5]": {"tested_on": "Reconstituted Human Oral Epithelium (RHO)", "test": "Re-epithelization after injury by scanning electronic microscopy", "assay_type": "cell-based", "conditions": "T24h after injury; for tissue repair / wound recovery seen by SEM: low 0.5%, intermediate 0.2%, high 0.2%, magnification 10000x, FIGS. 4-6; for film forming on the tissue surface: high molecular weight 0.2%, FIG. 6", "method": "Experiments were performed on Reconstituted Human Oral Epithelium (RHO). Immediately after the arrival in the laboratory, the RHO was removed from the agarose nutrient solution under a sterile airflow cabin. The inserts were rapidly placed in a 6-well plate previously filled with 1 ml of the maintenance medium at room temperature. The wells were placed in an incubator at 37° C., 5% CO2 and saturated humidity overnight. On the next day, an injury was performed with a glass capillary. The RHO samples were then treated with a solution containing hyaluronic acid having low (20-50 kDa), intermediate (100-300 kDa) or high (1,000-1,400 kDa) molecular weight. Untreated RHO was used as a control without treatment. The RHO samples for this assessment were prepared according to the procedure of example 1. 24 h after treatment with hyaluronic acid, the samples for scanning electronic microscopy (SEM) were immediately fixed by immersion in 2.5% glutaraldehyde in phosphate buffered saline (PBS) for 24 h, washing in 0.1 M sodium cacodylate buffer, pH 7.4, and then carried out in 1% osmium tetraoxide (OsO4) in the same buffer (2 h at room temperature). The samples were dehydrated in ascending grades of ethanol at room temperature and Hexamethyldisilazane overnight. The samples were placed on pins with carbon tabs, coated with a layer of gold using a Polaron Equipment limited SEM coating unit […], and then transferred to a SEM Zeiss Sigma Electron Microscope for viewing and photography. Magnification of 10000× was performed."}, "[6]": {"tested_on": "Integrin beta 1 (ITGB1)", "test": "Re-epithelization after injury by immunohistochemistry on Integrin B1", "assay_type": "cell-based, human", "conditions": "injured RHO, vs injured control, FIG. 7", "method": "as §2\nAt the end of the exposures (at least overnight), the tissue samples were fixed in buffered 10% formalin. Samples were included in paraffin blocks and sections of 5 μm were prepared. These slides were stained with Haematoxilin and Eosin.\nThe used technique allows for visualization of a specific protein or antigen in cells or tissue sections by binding a specific antibody chemically conjugated with a fluorescent dye. The indirect immunofluorescence staining is a procedure, in which a secondary antibody labelled with a fluorochrome is used to recognize a primary antibody. Immunofluorescence staining can be performed on cells fixed on slides and tissue sections. Immunofluorescence stained samples are examined under a fluorescence microscope or confocal microscope.\nINTEGRIN (ITGB1): Mouse monoclonal antibody anti-Integrin beta 1 (Abcam, ab3167) diluted at 2 μg/ml for a 2 h incubation at room temperature in 1% BSA in PBS; and the secondary antibody in Alexa Fluor 488 goat anti-mouse (Invitrogen, A10680). The nuclei were stained with Dapi.\nThe slices were examined under a Leica DM 2500 FLUO microscope and analyzed by Leica LAS software."}, "[7]": {"tested_on": "ZO-1", "test": "Re-epithelization after injury by immunohistochemistry on ZO-1", "assay_type": "cell-based, human", "conditions": "injured RHO, vs injured control; FIG. 7", "method": "The RHO samples for this assessment were prepared according to the procedure of example 1. At the end of the exposures (at least overnight), the tissue samples were fixed in buffered 10% formalin. Samples were included in paraffin blocks and sections of 5 μm were prepared. These slides were stained with Haematoxilin and Eosin. The used technique allows for visualization of a specific protein or antigen in cells or tissue sections by binding a specific antibody chemically conjugated with a fluorescent dye. The indirect immunofluorescence staining is a procedure, in which a secondary antibody labelled with a fluorochrome is used to recognize a primary antibody. Immunofluorescence staining can be performed on cells fixed on slides and tissue sections. Immunofluorescence stained samples are examined under a fluorescence microscope or confocal microscope. […] ZO-1: Rabbit polyclonal antibody anti-ZO-1 (Invitrogen, 61-7300), diluted at 5 μg/ml for an overnight incubation at 4° C. in 1% bovine serum albumin (BSA) in PBS; and the secondary antibody in Alexa Fluor 555 donkey anti-rabbit (Invitrogen, A31572). The nuclei were stained with (4′,6-diamidino-2-phenylindole) (Dapi). The slices were examined under a Leica DM 2500 FLUO microscope and analyzed by Leica LAS software."}}, "note": "Read-outs that look alike come from different tables or passages of the source.", "data": [{"molecule": "hyaluronic acid [intermediate molecular weight hyaluronic acid]", "values": [{"measurement": "TEER (barrier function) after injury", "setting": "[1]", "value": "improved the barrier function after an injury"}, {"measurement": "TEER (barrier function) of colonized RHO", "setting": "[2]", "value": "did not affect TEER"}, {"measurement": "decrease of the bacterial count, apical compartment", "setting": "[3]; 0.2% w/v applied 24 h before colonization with S. Aureus, FIG. 9", "value": "about 50%"}, {"measurement": "decrease of the bacterial count, homogenate compartment", "setting": "[3]; 0.2% w/v applied 24 h before colonization with S. Aureus, FIG. 10", "value": "about 50%"}, {"measurement": "total bacterial count (bacterial proliferation)", "setting": "[3]; summary of examples 5-9", "value": "−50", "unit": "%"}, {"measurement": "polysaccharide matrix (biofilm formation) by SEM", "setting": "[4]; FIG. 13", "value": "No polysaccharide matrix is visible"}, {"measurement": "colonies in cluster by SEM", "setting": "[4]; FIG. 13 vs FIG. 12", "value": "less colonies are in cluster"}, {"measurement": "tissue repair / wound recovery seen by SEM", "setting": "[5]", "value": "active process of tissue repair"}, {"measurement": "Integrin beta 1 expression (immunofluorescence)", "setting": "[6]; listed as hyaluronic acid of intermediate molecular weight", "value": "over-expression of integrin beta 1 exclusively"}]}, {"molecule": "[H]/N=C(\\N/C(=N/[H])NCCCCCCNC(=N)NC(=N)Nc1ccc(Cl)cc1)Nc1ccc(Cl)cc1", "note": "[CHL, chlorhexidine, reference compound]", "values": [{"measurement": "TEER (barrier function) of colonized RHO", "setting": "[2]; 0.2% applied 24 h before colonization with S. Aureus for 4 h, then 16 h incubation, FIG. 8", "value": "TEER decreased"}, {"measurement": "bacterial count, result in words", "setting": "[3]; 0.2% applied 24 h before colonization with S. Aureus, FIGS. 9 and 10", "value": "strong bactericidal property"}]}, {"molecule": "hyaluronic acid [low molecular weight hyaluronic acid]", "values": [{"measurement": "TEER (barrier function) after injury", "setting": "[1]", "value": "improved the barrier function after an injury"}, {"measurement": "ZO-1 expression (immunofluorescence)", "setting": "[7]", "value": "induced an over-expression"}, {"measurement": "tissue repair / wound recovery seen by SEM", "setting": "[5]", "value": "led to a recovery of the wound"}, {"measurement": "Integrin beta 1 expression (immunofluorescence)", "setting": "[6]", "value": "induced an over-expression"}]}, {"molecule": "hyaluronic acid [high molecular weight hyaluronic acid]", "values": [{"measurement": "film forming on the tissue surface", "setting": "[5]", "value": "film forming was observed"}, {"measurement": "film forming on the tissue surface", "setting": "[5]; listed as hyaluronic acid of high molecular weight", "value": "forming a film on the skin surface"}, {"measurement": "tissue repair / wound recovery seen by SEM", "setting": "[5]", "value": "significantly less advanced"}]}]}
